Assays:
Type in all cases: cell-based
[1] = target: T1, EGFR-L858R/C797S (H1975-clone #8 cells) (Homo sapiens, UniProt P00533, C797S/L858R); test: Cell degradation of EGFR, HTRF assay, H1975-clone#8 (L858R/C797S) cells; details: 16 h treatment; for DC50: EGFR degradation; for Dmax: maximum percentage of degradation
T1 construct: expressed in transfected cells; host or cells: H1975 (endogenous EGFR knocked out, clone #8)

[2] = target: p-EGFR Del19/C797S (H1975-clone #23 cells) (Homo sapiens, UniProt P00533); test: Cell p-EGFR inhibition assay, HTRF, H1975-clone#23 (DEL19/C797S) cells; details: 16 h treatment; for Imax (%): maximum percentage of pEGFR inhibition; for IC50: pEGFR inhibition
Summary of the method: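 Phospho-EGFR read by overnight HTRF on lysates, normalized to DMSO-treated high control; IC50, Hill slope and Imax fitted. Compounds were applied for 16 h (10 uM top, 5-fold steps, 8 doses) to an H1975 single clone carrying only exogenous Del19/C797S EGFR after sgRNA knockout of endogenous copies.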

[3] = target: T2, p-EGFR L858R (BaF3-L858R cells) (Homo sapiens, UniProt P00533, L858R); test: Cell p-EGFR inhibition assay, HTRF, BaF3-L858R cells; details: 16 h treatment; for Imax (%): maximum percentage of pEGFR inhibition; for IC50: pEGFR inhibition
T2 construct: host or cells: BaF3
Summary of the method: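 BaF3-L858R cells treated 16 h at 37 °C, 5% CO2 with compound from 10 uM top, 5-fold dilutions, 8 doses, in 0.1% DMSO medium. Lysates read overnight by HTRF p-EGFR antibodies; IC50 fitted to four-parameter curve against DMSO high control.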

[4] = target: T3, EGFR L858R (BaF3-L858R cells) (Homo sapiens, UniProt P00533, L858R); test: Cell degradation of EGFR, HTRF assay, BaF3-L858R cells; details: 16 h treatment; for DC50: EGFR degradation; for Dmax: maximum percentage of degradation
T3 construct: host or cells: BaF3
Summary of the method: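 EGFR L858R levels measured by HTRF antibody pair in lysed BaF3-L858R cells after 16 h compound exposure (8-point 5-fold series from 10 uM final, 37° C). Degradation is relative to DMSO-only cells; DC50 fitted with Hill equation, Dmax taken as the largest percent loss.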

Structure (SMILES)	DC50 [1] [nM]	Dmax [1] [%]	Imax (%) [2] [%]	IC50 [2] [nM]	Imax (%) [3] [%]	IC50 [3] [nM]	DC50 [4] [nM]	Dmax [4] [%]
COC[C@@H]1CN(c2ccc3c(c2)N2C[C@@H]4CC[C@H](COc5c(c(C)nn5C)-c5cc(cc(C)n5)C(=O)/N=C/2N3)C4)CCN1C1CCN(c2cc(F)c(C3CCC(=O)NC3=O)nc2C)CC1 (stereo partly drawn) [Example 89, 3-(3-fluoro-5-(4-((S)-2-(methoxymethyl)-4-((7^1R,7^3S,E)-1^1,1^3,2^6-trimethyl-3-oxo-5^2,5^3-dihydro-1^1H,5^1H-9-oxa-4-aza-5(2,1)-benzo[d]imidazola-2(2,4)-pyridina-1(4,5)-pyrazola-7(1,3)-cyclopentanacyclononaphane-5^6-yl)piperazin-1-yl)piperidin-1-yl)-6-methylpyridin-2-yl)piperidine-2,6-dione]	1.64	87.5	101.2	1.9	99.7	8	1.75	73.9
COC[C@H]1CN(c2ccc3c(c2)N2CC4CC[C@H](COc5c(c(C)nn5C)-c5cc(cc(C)n5)C(=O)/N=C/2N3)C4)CCN1C1CCN(c2cc(F)c(C3CCC(=O)NC3=O)nc2C)CC1 (stereo partly drawn) [Example 90, 3-(3-fluoro-5-(4-((R)-2-(methoxymethyl)-4-((7^1R,7^3S,E)-1^1,1^3,2^6-trimethyl-3-oxo-5^2,5^3-dihydro-1^1H,5^1H-9-oxa-4-aza-5(2,1)-benzo[d]imidazola-2(2,4)-pyridina-1(4,5)-pyrazola-7(1,3)-cyclopentanacyclononaphane-5^6-yl)piperazin-1-yl)piperidin-1-yl)-6-methylpyridin-2-yl)piperidine-2,6-dione]	2.06	87.4	101.7	2.5	98.4	6.3	3.21	80.6
COC[C@H]1CN(c2ccc3c(c2)N2CC4CC[C@H](COc5c(c(C)nn5C)-c5cc(cc(C)n5)C(=O)/N=C/2N3)C4)CCN1C1CCN(c2cc(F)c([C@H]3CCC(=O)NC3=O)c(F)c2)CC1 [Example 91, (R)-3-(2,6-difluoro-4-(4-((R)-2-(methoxymethyl)-4-((7R,7^3S,E)-1^1,1^3,2^6-trimethyl-3-oxo-5^2,5^3-dihydro-1^1H,5^1H-9-oxa-4-aza-5(2,1)-benzo[d]imidazola-2(2,4)-pyridina-1(4,5)-pyrazola-7(1,3)-cyclopentanacyclononaphane-5^6-yl)piperazin-1-yl)piperidin-1-yl)phenyl)piperidine-2,6-dione]	2.28	88.7	100.8	2.2	97.1	3.5	2.04	81.5
Cc1cc2cc(n1)-c1cnn(C)c1OC[C@H]1CCC(C1)CN1/C(=N/C2=O)Nc2ccc(N3CCN(C4CCN(c5c(F)cc(NC6CCC(=O)NC6=O)cc5F)CC4)CC3)cc21 (some centres unmarked) [Example 92, 3-((4-(4-(4-((7^1R,7^3S,E)-1^1,2^6-dimethyl-3-oxo-5^2,5^3-dihydro-1^1H,5^1H-9-oxa-4-aza-5(2,1)-benzo[d]imidazola-2(2,4)-pyridina-1(4,5)-pyrazola-7(1,3)-cyclopentanacyclononaphane-5^6-yl)piperazin-1-yl)piperidin-1-yl)-3,5-difluorophenyl)amino)piperidine-2,6-dione]	3.12	79.8	100.1	1	97.2	10	1.97	85.8
COC[C@@H]1CN(c2ccc3c(c2)N2CC4CC[C@H](COc5c(cnn5C)-c5cc(cc(C)n5)C(=O)/N=C/2N3)C4)CCN1C1CCN(c2c(F)cc(NC3CCC(=O)NC3=O)cc2F)CC1 (stereo partly drawn) [Example 93, 3-((4-(4-((S)-4-((7^1R,7^3S,E)-1^1,2^6-dimethyl-3-oxo-5^2,5^3-dihydro-1^1H,5^1H-9-oxa-4-aza-5(2,1)-benzo[d]imidazola-2(2,4)-pyridina-1(4,5)-pyrazola-7(1,3)-cyclopentanacyclononaphane-5^6-yl)-2-(methoxymethyl)piperazin-1-yl)piperidin-1-yl)-3,5-difluorophenyl)amino)piperidine-2,6-dione]	7.66	83.8	100.3	2	96.9	19.6	9.09	77.4
Cc1cc2cc(n1)-c1cnn(C)c1OC[C@H]1CCC(C1)CN1/C(=N/C2=O)Nc2ccc(N3CCN(C4CCN(c5cc(F)c([C@H]6CCC(=O)NC6=O)c(F)c5)CC4)C[C@@H]3CO)cc21 [Example 94, (R)-3-(4-(4-((R)-4-((7^1R,7^3S,E)-1^1,2^6-dimethyl-3-oxo-5^2,5^3-dihydro-1^1H,5^1H-9-oxa-4-aza-5(2,1)-benzo[d]imidazola-2(2,4)-pyridina-1(4,5)-pyrazola-7(1,3)-cyclopentanacyclononaphane-5^6-yl)-3-(hydroxymethyl)piperazin-1-yl)piperidin-1-yl)-2,6-difluorophenyl)piperidine-2,6-dione]	0.83	73.9	101.2	0.8	99.6	6.1	3.37	71.6
COC[C@H]1CN(c2ccc3c(c2)N2CC4CC[C@H](COc5c(c(C(F)(F)F)nn5C)-c5cc(cc(C)n5)C(=O)/N=C/2N3)C4)CCN1C1CCN(c2cc(F)c([C@H]3CCC(=O)NC3=O)c(F)c2)CC1 [Example 95, (R)-3-(4-(4-((R)-4-((7^1R,7^3S,E)-1^1,2^6-dimethyl-3-oxo-1^3-(trifluoromethyl)-5^2,5^3-dihydro-1^1H,5^1H-9-oxa-4-aza-5(2,1)-benzo[d]imidazola-2(2,4)-pyridina-1(4,5)-pyrazola-7(1,3)-cyclopentanacyclononaphane-5^6-yl)-2-(methoxymethyl)piperazin-1-yl)piperidin-1-yl)-2,6-difluorophenyl)piperidine-2,6-dione]	12.1	79	101	4.5	99.3	10.8	8.5	86.5
COC[C@@H]1CN(c2cc3c(cc2C)N/C2=N\C(=O)c4cc(C)nc(c4)-c4cnn(C)c4OC[C@H]4CC[C@H](C4)CN23)CCN1C1CCN(c2cc(F)c([C@H]3CCC(=O)NC3=O)c(F)c2)CC1 [Example 96, (R)-3-(2,6-difluoro-4-(4-((S)-2-(methoxymethyl)-4-((7R,7^3S,E)-1^1,2^6,5^5-trimethyl-3-oxo-5^2,5^3-dihydro-1^1H,5^1H-9-oxa-4-aza-5(2,1)-benzo[d]imidazola-2(2,4)-pyridina-1(4,5)-pyrazola-7(1,3)-cyclopentanacyclononaphane-5^6-yl)piperazin-1-yl)piperidin-1-yl)phenyl)piperidine-2,6-dione]	3.15	82.7	100.9	0.8	100.3	6.3	3.41	86.6
Cc1cc2cc(n1)-c1cnn(C)c1OC[C@H]1CCC(C1)CN1/C(=N/C2=O)Nc2ccc(N3CCN(C4CCN(c5ccc(NC6CCC(=O)NC6=O)nc5C)CC4)CC3)cc21 (some centres unmarked) [Example 98, 3-((5-(4-(4-((7^1R,7^3S,E)-1^1,2^6-dimethyl-3-oxo-5^2,5^3-dihydro-1^1H,5^1H-9-oxa-4-aza-5(2,1)-benzo[d]imidazola-2(2,4)-pyridina-1(4,5)-pyrazola-7(1,3)-cyclopentanacyclononaphane-5^6-yl)piperazin-1-yl)piperidin-1-yl)-6-methylpyridin-2-yl)amino)piperidine-2,6-dione]	2.49	75	101.3	1.4	110.3	4.7	2.6	80.6
Cc1cc2cc(n1)-c1c(C(F)F)nn(C)c1OC[C@H]1CCC(C1)CN1/C(=N/C2=O)Nc2ccc(N3CCN(C4CCN(c5c(F)cc(NC6CCC(=O)NC6=O)cc5F)CC4)CC3)cc21 (some centres unmarked) [Example 99, 3-((4-(4-(4-((7^1R,7^3S,E)-1^3-(difluoromethyl)-1^1,2^6-dimethyl-3-oxo-5^2,5^3-dihydro-1^1H,5^1H-9-oxa-4-aza-5(2,1)-benzo[d]imidazola-2(2,4)-pyridina-1(4,5)-pyrazola-7(1,3)-cyclopentanacyclononaphane-5^6-yl)piperazin-1-yl)piperidin-1-yl)-3,5-difluorophenyl)amino)piperidine-2,6-dione]	6	85.6	99.2	2.2	100.3	8	1.06	82.3
